Experimental data reported in patent publication US11446282B2, “Methods of treating mixed dyslipidemia and hypertriglycertdemia” (Kowa Company, Ltd., priority 2017, dated 2022).

Key:
[1] = tested on: organic anion-transporting polypeptide (OATP); assay: Drug-drug interaction with strong OATP inhibitors
[2] = tested on: dyslipidemic patients with renal impairment; assay: Example 3 phase III 52-week trial: lipid levels; assay type: in vivo, human; settings: for HDL-C % Change from baseline at Week 52 (LOCF) / HDL-C Week 52 (LOCF) / LDL-C % Change from baseline at Week 52 (LOCF) / LDL-C Week 52 (LOCF) / RemL-C % Change from baseline at Week 52 (LOCF) / RemL-C Week 52 (LOCF) / TG % Change from baseline at Week 52 (LOCF) / TG Week 52 (LOCF) / TG/HDL-C % Change from baseline at Week 52 (LOCF) / TG/HDL-C Week 52 (LOCF) / apoA1 % Change from baseline at Week 52 (LOCF) / apoA1 Week 52 (LOCF) / non-HDL-C % Change from baseline at Week 52 (LOCF) / non-HDL-C Week 52 (LOCF): 0.2 (0.4) mg/day
Procedure: This was a multicenter, single-arm, open-label, phase III trial. The inclusion criteria were as follows: (1) patients with dyslipidemia aged >20 years at the time of informed consent; (2) men and postmenopausal women; (3) fasting serum TG≥1.70 mmol/L (150 mg/dL) at two consecutive measurements during screening; and (4) patients who followed dietary and physical exercise guidance for >12 weeks before enrollment.
The major exclusion criteria were as follows: (1) patients with fasting serum TG≥5.65 mmol/L (500 mg/dL) during screening; (2) patients with poorly controlled diabetes mellitus (hemoglobin A1c [HbA1c]≥10.5%); (3) patients with concurrent poorly controlled thyroid disease; (4) men with serum creatinine ≥2.5 mg/dL and women with serum creatinine ≥2.0 mg/dL during screening who were already on statin therapy; (5) patients with eGFR<45 mL/min/1.73 m^2 during screening who were already on statin therapy; (6) patients with CK>5ULN (270 IU/L for men, 150 IU/L for women) during screening who were already on statin therapy; (7) patients with serious liver disease (cirrhosis Child-Pugh Class B or higher); (8) patients with gallstones or serious biliary tract disease; (9) patients who had suffered an acute myocardial infarction or stroke within three months before informed consent; and (10) patients with New York Heart Association class III or IV heart failure.
During the screening period (8 weeks prior to treatment initiation), tests were performed twice to determine patient eligibility. Thereafter, eligible patients orally received pemafibrate 0.2 mg/day (twice daily) for 52 weeks. From week 12 of the treatment period onwards, the investigators were instructed that the dose could be increased from 0.2 mg/day to 0.4 mg/day (twice daily) if there was an inadequate response to the initial dose based on fasting serum TG levels ≥1.70 mmol/L (150 mg/dL). Fasting blood and urine samples were collected at each visit. Blood and urine sample in patients with hemodialysis were collected just before dialysis. LDL-C levels were measured using the direct method. Lipoprotein fractions were measured by HPLC at baseline and weeks 12 and 40.
The primary efficacy endpoint was the percent change in fasting serum TG from baseline to the last evaluation point. The primary safety endpoints were the incidence of an AE or ADR occurring after drug administration during the study. Secondary efficacy endpoints included percent changes in lipid variables and changes in inflammation variables at week 52 [using the last-observation-carried-forward (LOCF)]. Secondary safety endpoints included changes in the levels of aspartate aminotransferase (AST), ALT, -GT, ALP, serum creatinine, eGFR, and CK at week 52. Each baseline value was defined as (1) the mean of the corresponding values in the first and second tests at the screening examination and at week 0 of the treatment period for fasting serum TG, HDL-C, total cholesterol (TC), LDL-C, and non-HDL-C; and (2) the value at week 0 of the treatment period for the other secondary variables.
The target sample size was set to 170 patients based on the number required to evaluate safety according to the International Conference on Harmonisation (ICH)-E1 guideline “Extent of population exposure to assess clinical safety for drugs intended for long-term treatment of non-life-threatening conditions”. For the primary efficacy endpoint, one-sample t-tests were performed.
The numbers of patients with AEs and ADRs and the incidences of AEs and ADRs were calculated in the analysis of primary safety endpoints. For the secondary efficacy endpoints, one-sample t-tests or Wilcoxon signed-rank tests [for high-sensitivity C-reactive protein (hsCRP) and IL-1] were performed. The secondary safety endpoints were analyzed with Wilcoxon signed-rank tests. A two-sided significance level of 0.05 was used. SAS v. 9.3 (SAS Institute Inc., Cary, N.C., USA) was used for these analyses. […]

With CC[C@@H](Oc1cccc(CN(CCCOc2ccc(OC)cc2)c2nc3ccccc3o2)c1)C(=O)O [Pemafibrate, (2R)-2-[3-({1,3-benzoxazol-2-yl[3-(4-methoxyphenoxy)propyl]amino}methyl)phenoxy]butanoic acid] the “interaction with strong OATP inhibitors (e.g., cyclosporine and rifampin)” value [1] was “interact”, the “HDL-C % Change from baseline at Week 52 (LOCF)” value ([2]; All Participants) was 13.1% and the “HDL-C Week 52 (LOCF)” value ([2]; All Participants) was 1.33 mmol/L. For the same molecule, the “LDL-C % Change from baseline at Week 52 (LOCF)” value (“LDL-C % Change from baseline” for short) ([2]; All Participants) was 2.2%, the “LDL-C Week 52 (LOCF)” value ([2]; All Participants) was 3.02 mmol/L and the “RemL-C % Change from baseline at Week 52 (LOCF)” value (shortened to “RemL-C % Change from baseline”) ([2]; All Participants) was −57.2%. The “RemL-C Week 52 (LOCF)” value ([2]; All Participants) was 0.18 mmol/L, the “TG % Change from baseline at Week 52 (LOCF)” value (“TG % Change from baseline” for short) ([2]; All Participants) was −45.8% and the “TG Week 52 (LOCF)” value ([2]; All Participants) was 1.48 mmol/L. For the same molecule, the “TG/HDL-C % Change from baseline at Week 52 (LOCF)” value (“TG/HDL-C % Change from baseline” below) ([2]; All Participants) was −49.7%, the “TG/HDL-C Week 52 (LOCF)” value ([2]; All Participants) was 2.27 (mmol/L)/(mmol/L) and the “apoA1 % Change from baseline at Week 52 (LOCF)” value (“apoA1 % Change from baseline” for short) ([2]; All Participants) was 5.0%. The “apoA1 Week 52 (LOCF)” value ([2]; All Participants) was 137.6 mg/dL, the “non-HDL-C % Change from baseline at Week 52 (LOCF)” value (shortened to “non-HDL-C % Change from baseline”) ([2]; All Participants) was −8.7% and the “non-HDL-C Week 52 (LOCF)” value ([2]; All Participants) was 3.63 mmol/L. For the same molecule, the “HDL-C % Change from baseline at Week 52 (LOCF)” value ([2]; eGFR G1 (≥90)) was 3.6%, the “HDL-C Week 52 (LOCF)” value ([2]; eGFR G1 (≥90)) was 1.29 mmol/L and the “LDL-C % Change from baseline” value ([2]; eGFR G1 (≥90)) was 2.7%. The “LDL-C Week 52 (LOCF)” value ([2]; eGFR G1 (≥90)) was 3.12 mmol/L, the “RemL-C % Change from baseline” value ([2]; eGFR G1 (≥90)) was −59.9% and the “RemL-C Week 52 (LOCF)” value ([2]; eGFR G1 (≥90)) was 0.21 mmol/L. For the same molecule, the “TG % Change from baseline” value ([2]; eGFR G1 (≥90)) was −41.4%, the “TG Week 52 (LOCF)” value ([2]; eGFR G1 (≥90)) was 1.71 mmol/L and the “TG/HDL-C % Change from baseline” value ([2]; eGFR G1 (≥90)) was −40.5%. For the same molecule, the “TG/HDL-C Week 52 (LOCF)” value ([2]; eGFR G1 (≥90)) was 1.58 (mmol/L)/(mmol/L), the “apoA1 % Change from baseline” value ([2]; eGFR G1 (≥90)) was 0.0% and the “apoA1 Week 52 (LOCF)” value ([2]; eGFR G1 (≥90)) was 133.8 mg/dL. The “non-HDL-C % Change from baseline” value ([2]; eGFR G1 (≥90)) was −8.3%, the “non-HDL-C Week 52 (LOCF)” value ([2]; eGFR G1 (≥90)) was 3.77 mmol/L and the “HDL-C % Change from baseline at Week 52 (LOCF)” value ([2]; eGFR G2 (≥60 and <90)) was 11.9%. The “HDL-C Week 52 (LOCF)” value ([2]; eGFR G2 (≥60 and <90)) was 1.34 mmol/L, the “LDL-C % Change from baseline” value ([2]; eGFR G2 (≥60 and <90)) was 2.1% and the “LDL-C Week 52 (LOCF)” value ([2]; eGFR G2 (≥60 and <90)) was 3.03 mmol/L. For the same molecule, the “RemL-C % Change from baseline” value ([2]; eGFR G2 (≥60 and <90)) was −56.0%, the “RemL-C Week 52 (LOCF)” value ([2]; eGFR G2 (≥60 and <90)) was 0.18 mmol/L and the “TG % Change from baseline” value ([2]; eGFR G2 (≥60 and <90)) was −45.8%. For the same molecule, the “TG Week 52 (LOCF)” value ([2]; eGFR G2 (≥60 and <90)) was 1.47 mmol/L, the “TG/HDL-C % Change from baseline” value ([2]; eGFR G2 (≥60 and <90)) was −48.9% and the “TG/HDL-C Week 52 (LOCF)” value ([2]; eGFR G2 (≥60 and <90)) was 1.24 (mmol/L)/(mmol/L). The “apoA1 % Change from baseline” value ([2]; eGFR G2 (≥60 and <90)) was 4.1%, the “apoA1 Week 52 (LOCF)” value ([2]; eGFR G2 (≥60 and <90)) was 137.2 mg/dL and the “non-HDL-C % Change from baseline” value ([2]; eGFR G2 (≥60 and <90)) was −8.4%. For the same molecule, the “non-HDL-C Week 52 (LOCF)” value ([2]; eGFR G2 (≥60 and <90)) was 3.64 mmol/L, the “HDL-C % Change from baseline at Week 52 (LOCF)” value ([2]; eGFR G3a-G3b (≥30 and <60)) was 17.0% and the “HDL-C Week 52 (LOCF)” value ([2]; eGFR G3a-G3b (≥30 and <60)) was 1.38 mmol/L. For the same molecule, the “LDL-C % Change from baseline” value ([2]; eGFR G3a-G3b (≥30 and <60)) was 5.1%, the “LDL-C Week 52 (LOCF)” value ([2]; eGFR G3a-G3b (≥30 and <60)) was 2.97 mmol/L and the “RemL-C % Change from baseline” value ([2]; eGFR G3a-G3b (≥30 and <60)) was −59.3%. The “RemL-C Week 52 (LOCF)” value ([2]; eGFR G3a-G3b (≥30 and <60)) was 0.17 mmol/L, the “TG % Change from baseline” value ([2]; eGFR G3a-G3b (≥30 and <60)) was −51.1% and the “TG Week 52 (LOCF)” value ([2]; eGFR G3a-G3b (≥30 and <60)) was 1.36 mmol/L. For the same molecule, the “TG/HDL-C % Change from baseline” value ([2]; eGFR G3a-G3b (≥30 and <60)) was −57.0%, the “TG/HDL-C Week 52 (LOCF)” value ([2]; eGFR G3a-G3b (≥30 and <60)) was 1.09 (mmol/L)/(mmol/L) and the “apoA1 % Change from baseline” value ([2]; eGFR G3a-G3b (≥30 and <60)) was 8.0%. For the same molecule, the “apoA1 Week 52 (LOCF)” value ([2]; eGFR G3a-G3b (≥30 and <60)) was 144.0 mg/dL, the “non-HDL-C % Change from baseline” value ([2]; eGFR G3a-G3b (≥30 and <60)) was −7.7% and the “non-HDL-C Week 52 (LOCF)” value ([2]; eGFR G3a-G3b (≥30 and <60)) was 3.56 mmol/L. For the same molecule, the “HDL-C % Change from baseline at Week 52 (LOCF)” value ([2]; eGFR G4-G5 (<30)) was 34.1%, the “HDL-C Week 52 (LOCF)” value ([2]; eGFR G4-G5 (<30)) was 1.18 mmol/L and the “LDL-C % Change from baseline” value ([2]; eGFR G4-G5 (<30)) was −8.8%. For the same molecule, the “LDL-C Week 52 (LOCF)” value ([2]; eGFR G4-G5 (<30)) was 2.82 mmol/L, the “RemL-C % Change from baseline” value ([2]; eGFR G4-G5 (<30)) was −57.1% and the “RemL-C Week 52 (LOCF)” value ([2]; eGFR G4-G5 (<30)) was 0.24 mmol/L. For the same molecule, the “TG % Change from baseline” value ([2]; eGFR G4-G5 (<30)) was −37.7%, the “TG Week 52 (LOCF)” value ([2]; eGFR G4-G5 (<30)) was 1.64 mmol/L and the “TG/HDL-C % Change from baseline” value ([2]; eGFR G4-G5 (<30)) was −51.0%. The “TG/HDL-C Week 52 (LOCF)” value ([2]; eGFR G4-G5 (<30)) was 1.68 (mmol/L)/(mmol/L), the “apoA1 % Change from baseline” value ([2]; eGFR G4-G5 (<30)) was 16.7% and the “apoA1 Week 52 (LOCF)” value ([2]; eGFR G4-G5 (<30)) was 122.4 mg/dL. The “non-HDL-C % Change from baseline” value ([2]; eGFR G4-G5 (<30)) was −17.3%, the “non-HDL-C Week 52 (LOCF)” value ([2]; eGFR G4-G5 (<30)) was 3.48 mmol/L and the “LDL-C change (observation)” value ([2]; lowest eGFR group (eGFR<30 mL/min/1.73 m^2: G4-G5)) was “reduction”.
